Consider 2 compounds from ChEMBL document CHEMBL2375258, “Synthesis of (R)-norbgugaine and its potential as quorum sensing inhibitor against Pseudomonas aeruginosa” (Bioorg Med Chem Lett, 2013).

Calls of active or inactive are those of the source. No cut-off for these calls is given here.

Assay [1] relates to Pseudomonas aeruginosa. Kind of assay: Inhibition of quorum sensing system in Pseudomonas aeruginosa ATCC 27853 assessed as inhibition of twitching motility at 0.1 to 0.5 mM after 24 hrs relative to control.
For assay [2], the system named is Pseudomonas aeruginosa. Kind of assay: Inhibition of quorum sensing system in Pseudomonas aeruginosa ATCC 27853 assessed as inhibition of swimming motility at 0.1 to 0.5 mM after 24 hrs relative to control.
Assay [3] deals with Pseudomonas aeruginosa. Kind of assay: Inhibition of quorum sensing system in Pseudomonas aeruginosa ATCC 27853 assessed as inhibition of swarming motility at 0.1 to 0.5 mM after 24 hrs relative to control.
Assay [4] has as its system Pseudomonas aeruginosa. The conditions noted are these: ATCC 27853, 4 mM.
Description: Inhibition of quorum sensing system in Pseudomonas aeruginosa ATCC 27853 assessed as inhibition of biofilm formation at 4 mM after 24 hrs by crystal violet staining method relative to control
For assay [5], the system named is Pseudomonas aeruginosa. Kind of assay: Ratio of compound activity to salicylic acid activity for inhibition of quorum sensing system-mediated biofilm formation in Pseudomonas aeruginosa ATCC 27853.
For assay [6], the system named is Pseudomonas aeruginosa. The experiment in a line: Inhibition of quorum sensing system in Pseudomonas aeruginosa ATCC 27853 assessed as inhibition of LasA at 0.1 to 0.5 mM relative to control.
Assay [7] deals with Pseudomonas aeruginosa. The experiment in a line: Inhibition of quorum sensing system in Pseudomonas aeruginosa ATCC 27853 assessed as inhibition of rhamnolipid production at 0.1 to 0.5 mM relative to control.
The test system of assay [8] is Pseudomonas aeruginosa. The experiment in a line: Inhibition of quorum sensing system in Pseudomonas aeruginosa ATCC 27853 assessed as inhibition of biofilm formation at > 1.8 mM after 24 hrs by crystal violet staining method relative to control.
The test system of assay [9] is Pseudomonas aeruginosa. Kind of assay: Inhibition of quorum sensing system in Pseudomonas aeruginosa ATCC 27853 assessed as inhibition of […] pigmentation at 0.1 to 0.5 mM relative to control.
Assay [10] has as its system Pseudomonas aeruginosa. The experiment in a line: Antibacterial activity against Pseudomonas aeruginosa ATCC 27853 assessed as growth inhibition at 100 ug/mL measured every 2 hrs up to 20 hrs. The assay is classed as functional, organism-based.

Take `O=C(O)c1ccccc1O`: the inhibition – broadly, the change of the read-out against control, counted positive when it falls – came to 35% with Pseudomonas aeruginosa [1], 40% with Pseudomonas aeruginosa [2], 60% in the assay on Pseudomonas aeruginosa [3] and 48% in the assay on Pseudomonas aeruginosa [4].
Take `CCCCCCCCCCCCCC[C@@H]1CCCN1`: the Ratio in the assay with Pseudomonas aeruginosa [5] was 2. In addition, the inhibition in the assay on Pseudomonas aeruginosa [6] stood at 34%; in the assay on Pseudomonas aeruginosa [7], 42%; in the assay with Pseudomonas aeruginosa [8], 83%; in the assay on Pseudomonas aeruginosa [9], 37%; in the assay on Pseudomonas aeruginosa [1], 15%; in the assay on Pseudomonas aeruginosa [2], 33%. Also, the inhibition with Pseudomonas aeruginosa [3] was found to be 95%. Besides, the “growth inhibition (GI)” value in the assay with Pseudomonas aeruginosa [10] was “inactive”.
